Assay results from patent publication US9326973B2, “Hepatitis C virus inhibitors” (priority 2012, dated 2016).

These molecules were tested on HCV replicon, genotype-1a variant with glutamine 30 changed to glutamate in the NS5A protein (assay: microbe, parasite or virus in culture). Conditions: HCV replicon genotype 1a Q30E (Q→E) variant; test compound titrated with an NS5A-targeting compound (BMS-790052 fixed at 200 nM); ranking of synergist activity.
Assay type: cell-based, HCV genotype 1a
How it was run: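 Synergy was assessed by combining several fixed amounts of an NS5A-targeting compound with a titration of the second compound of interest.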

| SMILES | Fold-Synergistic 1a (Q30E) [fold] |
| --- | --- |
| CC1(C)OC(=O)CC1C(=O)N[C@H](c1nc(-c2ccc(-c3ccc(-c4c[nH]c([C@@H](NC(=O)C5CC(=O)OC5(C)C)C(C)(C)C)n4)cc3)cc2)c[nH]1)C(C)(C)C (some centres unmarked) [Compound S-279] | >10 |
| Cc1ccc(C(F)(F)C(=O)N[C@H](c2nc(-c3ccc(-c4ccc(-c5c[nH]c([C@@H](NC(=O)C(F)(F)c6ccc(C)cc6)C(C)(C)C)n5)cc4)cc3)c[nH]2)C(C)(C)C)cc1 [Compound S-288] | >100 |
| COc1cccc2c(C(=O)N3CCC[C@H]3c3ncc(-c4ccc(-c5ccc(-c6cnc([C@@H]7CCCN7C(=O)c7nccc8c(OC)cccc78)[nH]6)cc5)cc4)[nH]3)nccc12 [Compound S-201] | >100 |
| CC(C)(C)[C@H](NC(=O)C1CCN(c2cccc(C#N)c2)C1=O)c1nc(-c2ccc(-c3ccc(-c4c[nH]c([C@@H](NC(=O)C5CCN(c6cccc(C#N)c6)C5=O)C(C)(C)C)n4)cc3)cc2)c[nH]1 (some centres unmarked) [Compound S-291] | >100 |
| CC(C)[C@H](NC(=O)C1(C)CCCC1)c1nc(-c2ccc3c(c2)Cc2cc(-c4c[nH]c([C@@H](NC(=O)C5(C)CCCC5)C(C)C)n4)ccc2-3)c[nH]1 [Compound N-72] | >100 |
| COC(=O)N[C@H](C(=O)N[C@H](c1nc(-c2ccc(-c3ccc(-c4c[nH]c([C@@H](NC(=O)[C@@H](NC(=O)OC)C5C[C@@H](C)O[C@H](C)C5)C(C)(C)C)n4)cc3)cc2)c[nH]1)C(C)(C)C)C1C[C@@H](C)O[C@H](C)C1 (stereo partly drawn) [Compound L-72] | >10 |
| CC(C)(C)[C@H](NC(=O)C1CCOC1)c1nc(-c2ccc(-c3ccc(-c4c[nH]c([C@@H](NC(=O)C5CCOC5)C(C)(C)C)n4)cc3)cc2)c[nH]1 (some centres unmarked) [Compound W-129] | >10 |
| CCC(C)[C@H](NC(=O)CC(C)C)c1nc(-c2ccc(-c3ccc(-c4c[nH]c([C@@H](NC(=O)CC(C)C)C(C)CC)n4)cc3)cc2)c[nH]1 (some centres unmarked) [Compound N-34] | >100 |
| C[C@@H]1C[C@@H](C(=O)N[C@H](c2nc(-c3ccc(-c4ccc(-c5c[nH]c([C@@H](NC(=O)[C@@H]6C[C@@H](C)CN6C(=O)OC(C)(C)C)C(C)(C)C)n5)cc4)cc3)c[nH]2)C(C)(C)C)N(C(=O)OC(C)(C)C)C1 [Compound W-120] | >100 |
| C=C[C@H]1C[C@@]1(NC(=O)OC(C)(C)C)C(=O)N[C@H](c1nc(-c2ccc(-c3ccc(-c4c[nH]c([C@@H](NC(=O)[C@]5(NC(=O)OC(C)(C)C)C[C@@H]5C=C)C(C)(C)C)n4)cc3)cc2)c[nH]1)C(C)(C)C [Compound W-4] | >100 |
| O=C(N[C@H](c1nc(-c2ccc(-c3ccc(-c4c[nH]c([C@@H](NC(=O)C(=O)N5CCC(F)(F)CC5)C5CC5)n4)cc3)cc2)c[nH]1)C1CC1)C(=O)N1CCC(F)(F)CC1 [Compound L-37] | >100 |
| CC(C)(C)C(=O)N[C@H](c1nc(-c2ccc(-c3ccc(-c4c[nH]c([C@@H](NC(=O)C(C)(C)C)C5CCCC5)n4)cc3)cc2)c[nH]1)C1CCCC1 [Compound N-44] | >100 |
| CC1([C@H](NC(=O)C(=O)N2CCC(C(F)(F)F)CC2)c2nc(-c3ccc(-c4ccc(-c5c[nH]c([C@@H](NC(=O)C(=O)N6CCC(C(F)(F)F)CC6)C6(C)CC6)n5)cc4)cc3)c[nH]2)CC1 [Compound W-59] | >100 |
| CC1([C@H](NC(=O)C2CC(=O)C2)c2nc(-c3ccc(-c4ccc(-c5c[nH]c([C@@H](NC(=O)C6CC(=O)C6)C6(C)CC6)n5)cc4)cc3)c[nH]2)CC1 [Compound W-174] | >100 |
| O=C(N1CCC[C@H]1c1ncc(-c2ccc(-c3ccc(-c4cnc([C@@H]5CCCN5C(=O)C5(c6ccccc6F)CCCC5)[nH]4)cc3)cc2)[nH]1)C1(c2ccccc2F)CCCC1 [Compound S-155] | <10 |
| CC(C)[C@H](NC(=O)C(C)(C)OCC(F)F)c1nc(-c2ccc(-c3ccc(-c4c[nH]c([C@@H](NC(=O)C(C)(C)OCC(F)F)C(C)C)n4)cc3F)cc2)c[nH]1 [Compound N-98] | >100 |
| CC(C)[C@H](NC(=O)C1CC(=O)C1)c1nc(-c2ccc(-c3ccc(-c4c[nH]c([C@@H](NC(=O)C5CC(=O)C5)C(C)C)n4)cc3)cc2)c[nH]1 [Compound W-172] | >10 |
| C#CCCC(=O)N1CCC[C@H]1c1ncc(-c2ccc(-c3ccc(-c4cnc([C@@H]5CCCN5C(=O)CCC#C)[nH]4)cc3)cc2)[nH]1 [Compound S-179] | <10 |
| C[C@]1(C(=O)N2CCC[C@H]2c2ncc(-c3ccc(-c4ccc(-c5cnc([C@@H]6CCCN6C(=O)[C@@]6(C)CCC(F)(F)CO6)[nH]5)cc4)cc3)[nH]2)CCC(F)(F)CO1 [Compound P-186] | <10 |
| CN(C)C(=N[C@H](c1ncc(-c2ccc(-c3ccc(-c4cnc([C@@H](NC(=O)C5(C6(O)CCOCC6)CCC5)C(C)(C)C)[nH]4)cc3)cc2)[nH]1)C(C)(C)C)N(C)C [Compound B85] | >10 |
| CC(C)(C)[C@H](NC(=O)C1(CO)CCCCO1)c1nc(-c2ccc(-c3ccc(-c4c[nH]c([C@@H](NC(=O)C5(CO)CCCCO5)C(C)(C)C)n4)cc3)cc2)c[nH]1 (some centres unmarked) [Compound P-177] | >100 |

| SMILES | Fold-Synergistic 1a (Q30E) [fold] |
| --- | --- |
| COC(C)(C)C(=O)N[C@H](c1nc(-c2ccc(-c3ccc(-c4c[nH]c([C@@H](NC(=O)C(C)(C)OC)C(C)C)n4)cn3)cc2)c[nH]1)C(C)C [Compound N-102] | >100 |
| CC1([C@H](NC(=O)[C@@]2(C)CCCCO2)c2nc(-c3ccc(-c4ccc(-c5c[nH]c([C@@H](NC(=O)[C@@]6(C)CCCCO6)C6(C)CC6)n5)cc4)cc3)c[nH]2)CC1 [Compound P-187] | >100 |
| CC(C)(C)CC(=O)N1CCC[C@H]1c1ncc(-c2ccc(-c3ccc(-c4cnc([C@@H]5CCCN5C(=O)CC(C)(C)C)[nH]4)cc3)cc2)[nH]1 [Compound S-197] | <10 |
| CC(C)[C@H](NC(=O)C1CC2(C1)OCCO2)c1nc(-c2ccc(-c3ccc(-c4c[nH]c([C@@H](NC(=O)C5CC6(C5)OCCO6)C(C)C)n4)cc3)cc2)c[nH]1 (some centres unmarked) [Compound W-176] | >100 |
| CC(C)(C)[C@H](NC(=O)[C@@H]1CCC(=O)N1)c1nc(-c2ccc(-c3ccc(-c4c[nH]c([C@@H](NC(=O)[C@@H]5CCC(=O)N5)C(C)(C)C)n4)cc3)cc2)c[nH]1 [Compound L-10] | >10 |
| O=C(c1ccccc1)N1CCC[C@H]1c1ncc(-c2ccc(-c3ccc(-c4cnc([C@@H]5CCCN5C(=O)c5ccccc5)[nH]4)cc3)cc2)[nH]1 [Compound S-106] | <10 |
| CC(C)(Br)C(=O)N[C@H](c1nc(-c2ccc(-c3ccc(-c4c[nH]c([C@@H](NC(=O)C(C)(C)Br)C(C)(C)C)n4)cc3)cc2)c[nH]1)C(C)(C)C [Compound W-149] | >100 |
| CC(C)(C)[C@H](NC(=O)C(F)(F)C(O)c1ccccc1)c1nc(-c2ccc(-c3ccc(-c4c[nH]c([C@@H](NC(=O)C(F)(F)C(O)c5ccccc5)C(C)(C)C)n4)cc3)cc2)c[nH]1 (some centres unmarked) [Compound P-168] | >100 |
| CC(C)(C)[C@H](NC(=O)C1(c2ccc(F)cc2)CC1(C)C)c1nc(-c2ccc(-c3ccc(-c4c[nH]c([C@@H](NC(=O)C5(c6ccc(F)cc6)CC5(C)C)C(C)(C)C)n4)cc3)cc2)c[nH]1 (some centres unmarked) [Compound S-285] | >100 |
| CC(CO)(CO)C(=O)N[C@H](c1nc(-c2ccc(-c3ccc(-c4c[nH]c([C@@H](NC(=O)C(C)(CO)CO)C(C)(C)C)n4)cc3)cc2)c[nH]1)C(C)(C)C [Compound W-125] | >100 |
| COC(=O)N[C@H](C(=O)NC1(c2nc(-c3ccc(-c4ccc(-c5c[nH]c(C6(NC(=O)[C@@H](NC(=O)OC)C(C)C)Cc7ccccc7C6)n5)cc4)cc3)c[nH]2)Cc2ccccc2C1)C(C)C [Compound N-18] | <10 |
| COC1CC(C(=O)N[C@H](c2nc(-c3ccc(-c4ccc(-c5c[nH]c([C@@H](NC(=O)C6CC(OC)C6)C(C)(C)C)n5)cc4)cc3)c[nH]2)C(C)(C)C)C1 (stereo partly drawn) [Compound L-54] | >100 |
| O=C(c1ccnc2ccccc12)N1CCC[C@H]1c1ncc(-c2ccc(-c3ccc(-c4cnc([C@@H]5CCCN5C(=O)c5ccnc6ccccc56)[nH]4)cc3)cc2)[nH]1 [Compound S-125] | <10 |
| CC(C)(C)[C@H](NC(=O)[C@@H]1CCC[C@@H]1O)c1nc(-c2ccc(-c3ccc(-c4c[nH]c([C@@H](NC(=O)[C@@H]5CCC[C@@H]5O)C(C)(C)C)n4)cc3)cc2)c[nH]1 [Compound P-171] | >100 |
| COC(=O)N[C@@H](C(=O)NC1(c2nc(-c3ccc(-c4ccc(-c5c[nH]c(C6(NC(=O)[C@H](NC(=O)OC)C(C)C)CCCC6)n5)cc4)cc3)c[nH]2)CCCC1)C(C)C [Compound N-13] | <10 |
| CCC(C)[C@H](NC(=O)[C@@H](NC(=O)OC)C(C)C)c1nc(-c2ccc(-c3ccc(-c4c[nH]c([C@@H](NC(=O)[C@@H](NC(=O)OC)C(C)C)C(C)CC)n4)cc3)cc2)c[nH]1 (some centres unmarked) [Compound N-33] | >10 |
| CCN(CC(F)(F)F)C(=O)C(=O)N[C@H](c1nc(-c2ccc(-c3ccc(-c4c[nH]c([C@@H](NC(=O)C(=O)N(CC)CC(F)(F)F)C(C)(C)C)n4)cc3)cc2)c[nH]1)C(C)(C)C [Compound W-37] | >100 |
| O=C(c1cncnc1)N1CCC[C@H]1c1ncc(-c2ccc(-c3ccc(-c4cnc([C@@H]5CCCN5C(=O)c5cncnc5)[nH]4)cc3)cc2)[nH]1 [Compound S-195] | <10 |
| CC(C)(C(=O)N[C@H](c1nc(-c2ccc(-c3ccc(-c4c[nH]c([C@@H](NC(=O)C(C)(C)C(=O)N5CCC(F)CC5)C(C)(C)C)n4)cc3)cc2)c[nH]1)C(C)(C)C)C(=O)N1CCC(F)CC1 [Compound W-142] | >100 |
| CC1(C(=O)N[C@H](c2nc(-c3ccc(-c4ccc(-c5c[nH]c([C@@H](NC(=O)C6(C)CCCO6)C(C)(C)C)n5)cc4)cc3)c[nH]2)C(C)(C)C)CCCO1 (stereo partly drawn) [Compound L-69] | >100 |
